Experiments:
[1] = test system: patients without positive bacterial cultures localized to the prostatic fluid; experiment: Example II: double blind placebo-controlled study using 30 patients; type: in vivo
Description: A double blind study using 30 patients without positive bacterial cultures localized to the prostatic fluid are enrolled in a double blind study. Seventeen of the patients receive a composition comprised of quercetin in amount of 500 milligrams, bromelin in an amount of 10 milligrams, and papain in an amount of 10 milligrams as the active ingredients thereof. After a randomized study is completed, an additional fifteen patients are treated in an open label study with only the […]. […] The mean symptom score improves from 21.0 to 13.1 in the group receiving quercetin, but from 20.2 to 18.8 in the placebo group. This represents an improvement of 35%. In those patients which receive only the quercetin, without the papain and bromelin, with obtainable secretions, the white blood cell count in the decreases from 16.8 to 5.3, versus a decrease from 13.1 to 8.3 in the placebo patients.

[2] = test system: chronic interstitial cystitis syndromes; conditions: quercetin alone; cited from earlier work
[3] = Tests of bioavailability of quercetin alone; type: in vivo; conditions: transmural intestinal absorption relatively low

bioavailability [3]: does not have a high bioavailability
SMILES: O=c1c(O)c(-c2ccc(O)c(O)c2)oc2cc(O)cc(O)c12 [quercetin]
mean symptom score, after treatment ([1]; end value of the group): 13.1
improvement of mean symptom score ([1]; human, in vivo): 35%
white blood cell count in secretions, after treatment ([1]; patients with obtainable secretions, end value): 5.3
white blood cell count in secretions, before treatment ([1]; patients with obtainable secretions, start value): 16.8
mean symptom score, before treatment ([1]; start value of the group): 21.0
symptomatic response of patients [2]: significant

Reference: patent US20010051191A1, “Composition and method for treating non-bacterial cystitis” (priority 2000, published 2001)
